Reference: US6440968B1, “Use of maduraohtalazine derivatives as inhibitors of proinflammatory cytokines” (Elbion G.m.b.H., priority 1999, dated 2002)

How the values were obtained:
[1] = tested on: IL-2 release from Jurkat cells; assay: Inhibition of IL-2 release from Jurkat cells; format: cell-based; conditions: Homo sapiens; Jurkat cells stimulated with ionomycin/PMA, IL-2 ELISA of supernatants
Description: (§1) To determine the effect of the compounds according to the invention on the said cytokines, the inhibition of the release of IL-2,IL-4 and IL-5 from T cells was investigated in vitro.
Jurkat cells (clone E6-1, batch F-12871, from ATCC, Rockville, Md.) are seeded at about 100,000 cells in 50μ per well in microtitre plates and preincubated in an incubator (5% CO2/37° C./100% humidity). The medium employed is RPMI-1640 with HEPES/10% FCS/2 mM glutamine/100 U/m penicillin/100 mg/m streptomycin and 50 μM mercaptoethanol. After 3 hours, the substances to be tested are applied in various concentrations (100μ per well). To determine the spontaneous value and maximum values, in each case only medium/0.2% DMSO is applied. 30 minutes after application of substance and incubation, stimulation is carried out with in each case 25μ of ionomycin (final concentration 1 μM, Sigma I-0634) and phorbol myristate acetate (PMA, final concentration 25 ng/m, Sigma P-8139) per well. The spontaneous value receives 50μ of medium in place of ionomycin/PMA. Incubation overnight is then carried out. The supernatants are measured undiluted in an IL-2 ELISA (Pharmingen, capture mab: 18951 D detection mab: 20672 D). The IC50 determination was analysed by a logit-log plot.

[2] = tested on: IL-5 release from D10.G4.1 cells; assay: Inhibition of IL-5 release from D10.G4.1 cells (D10); format: cell-based; conditions: D10 cells stimulated with anti-CD3 antibody, IL-5 ELISA of supernatants
Description: as §1
3 days after thawing and cultivating D10 cells in medium (RPMI-1640 with HEPES/10% FCS/2 mM glutamine/100 U/m penicillin/100 mg/m streptomycin and 50 μM mercaptoethanol) with Rat Stirm™ (Collaborative Biomedical Products, Bedford Mass.) they are spun down, washed with medium without Rat Stim™, seeded at a concentration of 40,000 to 60,000 cells per well in a microtitre plate and incubated at 37° C./5% CO2/100% humidity for 3.5 hours. The substances to be tested are then applied in various concentrations in each case 50μ per well. The determinations of the maximum value and spontaneous value each receive 50μ d of medium/0.4% DMSO. After a further 30 minutes of incubation, stimulation is carried out with in each case 50μ of anti-CD3 antibody (145-2C11, Cedarlane Laboratories Limited, Hornby/Ontario) per well (final dilution 1:100). The determination of the spontaneous value receives 50μ of medium. After incubation overnight, the supernatants are measured in an IL-5 ELISA (Pharmingen: capture mab: 18051D; detection mab: 18062 D). The IC50 determination was analysed by a logit-log plot.

[3] = tested on: IL-4 release from D10.G4.1 cells; assay: Inhibition of IL-4 release from D10.G4.1 cells (D10); format: cell-based; conditions: D10 cells stimulated with anti-CD3 antibody, IL-4 ELISA of supernatants
Description: as §1
3 days after thawing and cultivating D10 cells in medium (RPMI-1640 with HEPES/10% FCS/2 mM glutamine/100 U/m penicillin/100 mg/m streptomycin and 50 μM mercaptoethanol) with Rat Stim™ (Collaborative Biomedical Products, Bedford Mass.) they are spun down, washed with medium without Rat Stim™, seeded at a concentration of 40,000 to 60,000 cells per well in a microtitre plate and incubated at 37° C./5% CO2/100% humidity for 3.5 hours. The substances to be tested are then applied in various concentrations in each case 50μ per well. The determinations of the maximum value and spontaneous value each receive 50μ of medium/0.4% DMSO.
After a further 30 minutes of incubation, stimulation is carried out with in each case 50μ of anti-CD3 antibody (145-2C11, Cedarlane Laboratories Limited, Hornby/Ontario) per well (final dilution 1:100). The determination of the spontaneous value receives 50μ of medium. After incubation overnight, the supernatants are measured in an IL-4 ELISA (Pharmingen: capture mab: 18031D; detection mab: 18042 D). The IC50 determination was analysed by a logit-log plot.

[4] = tested on: pulmonary infiltration of eosinophils; assay: Inhibition of the late phase eosinophilia 24 h after challenge of actively sensitized guinea pigs by ovalbumin inhalation; format: in vivo, Dunkin-Hartley guinea pigs; conditions: 10 mg/kg i.p. 2 h before challenge, bronchoalveolar lavage 24 h after ovalbumin challenge; for Eosinophils B = eosinophils in the substance-treated group with ovalbumin challenge: mean
Description: The inhibition of the pulmonary infiltration of eosinophils by the substances is examined in an in vivo test on Dunkin-Hartley guinea pigs which have been actively sensitized against ovalbumin. The sensitization is effected by two subcutaneous injections of a suspension of 10 μg of ovalbumin together with 1 mg of aluminium hydroxide in 0.5 m of physiological saline as adjuvant at an interval of 14 days. 7 days after the second injection, the animals in the control group which are to be exposed to an ovalbumin aerosol are pretreated with mepyramine maleate (10 mg/kg i.p.) in order to protect from anaphylactic death. After 30 minutes, the animals are exposed in a plastic box for 30 sec to an ovalbumin aerosol (0.5 mg/m ) which is produced by an atomizer driven by compressed air (19.6 kPa). Control animals are exposed to an aerosol of physiological saline. 24 hours after the exposure to ovalbumin aerosol (challenge) the animals are anaesthetized with an overdose of ethylurethane (1.5 g/kg of body weight i.p.), and a bronchoalveolar lavage is carried out with 2×5 m of physiological saline. The lavage fluid is collected and centrifuged at 300 rpm for 10 min, and then the cell pellet is resuspended in 1 m of physiological saline. The eosinophils are stained using the Becton-Dickinson test kit (N.5877) for eosinophils and are counted in a Neubauer chamber. Each test includes 2 control groups (exposure to a physiological saline aerosol and exposure to an ovalbumin solution aerosol).
The test substances are administered intraperitoneally or orally as suspension in 10% polyethylene glycol 300 and 0.5% strength 5-hydroxyethylcellulose 2 hours before the allergen challenge. The control groups are treated with the vehicle in a form corresponding to the administration of the test substance. The number of animals in each control and test group is 3-10.

Row | Compound | IC50 [2] [nM] | melting point | also measured
1 | COc1c2c(c(O)c3c1C(=O)c1c(cc(O)c(C)c1O)C3=O)-c1c(cc3cn[nH]c(=O)c3c1O)CC2 [Compound 1, 10,12,15,16-Tetrahydroxy-8-methoxy-11-methyl-9,14-dioxo-6,7,9,14-tetrahydronaphthaceno[1,2-g]phthalazin-1-one] | 450 | – | IC50 [1]: 80 nM; IC50 [3]: 860 nM; Inhibition (of late phase eosinophilia) [4]: 112.4; Eosinophils B = eosinophils in the substance-treated group with ovalbumin challenge [4]: 0.51 10^6/animal
2 | COc1c2c(c(O)c3c1C(=O)c1c(O)cc(O)cc1C3=O)-c1c(cc3c(C)nn(C)c(=O)c3c1O)CC2 [Compound 2, 2-Methyl-10,12,15,16-tetrahydroxy-8-methoxy-1-methyl-9,14-dioxo-6,7,9,14-tetrahydronaphthaceno[1,2-g]phthalazin-1-one] | 880 | – | IC50 [3]: 1460 nM
3 | CCCn1ncc2cc3c(c(O)c2c1=O)-c1c(O)c2c(c(OC)c1CC3)C(=O)c1c(cc(O)c(C)c1O)C2=O [Compound 3, 2-Propyl-10,12,15,16-tetrahydroxy-8-methoxy-11-methyl-9,14-dioxo-6,7,9,14-tetrahydronaphthaceno[1,2-g]phthalazin-1-one] | – | 350 to 351 °C | IC50 [3]: 2910 nM
4 | COc1c2c(c(O)c3c1C(=O)c1c(cc(O)c(C)c1O)C3=O)-c1c(cc3cnn(CCO)c(=O)c3c1O)CC2 [Compound 4, 2-(2-Hydroxyethyl)-10,12,15,16-tetrahydroxy-8-methoxy-11-methyl-9,14-dioxo-6,7,9,14-tetrahydronaphthaceno[1,2-g]phthalazin-1-one] | – | > 300 °C | –
5 | COc1c2c(c(O)c3c1C(=O)c1c(cc(O)c(C)c1O)C3=O)-c1c(cc3cnn(-c4ccccc4)c(=O)c3c1O)CC2 [Compound 5, 2-phenyl-10,12,15,16-tetrahydroxy-8-methoxy-11-methyl-9,14-dioxo-6,7,9, 14-tetrahydronaphthaceno[1,2-g]phthalazin-1-one] | 430 | – | IC50 [1]: 200 nM; Inhibition (of late phase eosinophilia) [4]: 85.0; Eosinophils B = eosinophils in the substance-treated group with ovalbumin challenge [4]: 0.85 10^6/animal
6 | COc1c2c(c(O)c3c1C(=O)c1c(cc(O)c(C)c1O)C3=O)-c1c(cc3cnn(CCOC(C)=O)c(=O)c3c1O)CC2 [Compound 6, 2-(2-Acetoxyethyl)-10,12,15,16-tetrahydroxy-8-methoxy-11-methyl-9,14-dioxo-6,7,9,14-tetrahydronaphthaceno[1,2-g]phthalazin-1-one] | – | > 350 °C | –
7 | COC(=O)Oc1cc2c(c(O)c1C)C(=O)c1c(OC)c3c(c(O)c1C2=O)-c1c(cc2cnn(-c4ccccc4)c(=O)c2c1O)CC3 [Compound 7, 2-Phenyl-10,15,16-trihydroxy-8-methoxy-12-methoxycarbonyloxy-11-methyl-9,14-dioxo-6,7,9,14-tetrahydronaphthaceno[1,2-g]phthalazin-1-one] | – | > 350 °C | –
8 | COc1c2c(c(O)c3c1C(=O)c1c(cc(O)c(C)c1O)C3=O)-c1c(cc3cnn(CCN)c(=O)c3c1O)CC2 [Compound 8, 2-(2-Aminoethyl)-10,12,15,16-tetrahydroxy-8-methoxy-11-methyl-9,14-dioxo-6,7,9,14-tetrahydronaphthaceno[1,2-g]phthalazin-1-one] | 780 | > 350 °C (dec.) | IC50 [3]: 2580 nM
9 | Cc1c(O)cc2c(c1O)C(=O)c1c(O)c3c(c(O)c1C2=O)-c1c(cc2cnn(-c4ccccn4)c(=O)c2c1O)CC3 [Compound 9, 2-(2-Pyridyl)-8,10,12,15,16-pentahydroxy-11-methyl-9,14-dioxo-6,7,9,14-tetrahydronaphthaceno[1,2-g]phthalazin-1-one] | – | > 350 °C | –
10 | Cc1c(O)cc2c(c1O)C(=O)c1c(O)c3c(c(O)c1C2=O)-c1c(cc2cnn(-c4ccccc4)c(=O)c2c1O)CC3 [Compound 10, 2-Phenyl-8,10,12,15,16-pentahydroxy-11-methyl-9,14-dioxo-6,7,9,14-tetrahydronaphthaceno[1,2-g]phthalazin-1-one] | – | > 350 °C | –
11 | CCOC(Cn1ncc2cc3c(c(O)c2c1=O)-c1c(O)c2c(c(OC)c1CC3)C(=O)c1c(cc(O)c(C)c1O)C2=O)OCC [Compound 11, 2-(2,2-Diethoxyethyl)-10,12,15,16-tetrahydroxy-8-methoxy-11-methyl-9,14-dioxo-6,7,9,14-tetrahydronaphthaceno[1,2-g]phthalazin-1-one] | – | 285 °C | –
12 | COc1c2c(c(OC(C)=O)c3c1C(=O)c1c(cc(OC(C)=O)c(C)c1OC(C)=O)C3=O)-c1c(cc3cnn(-c4ccccc4)c(=O)c3c1OC(C)=O)CC2 [Compound 12, 2-Phenyl-10,12,15,16-tetraacetoxy-8-methoxy-11-methyl-9,14-dioxo-6,7,9,14-tetrahydronaphthaceno[1,2-g]phthalazin-1-one] | – | 273 °C | –
13 | COc1c2c(c(O)c3c1C(=O)c1c(cc(O)c(C)c1O)C3=O)-c1c(cc3cnn(-c4ncc[nH]4)c(=O)c3c1O)CC2 [Compound 15, 2-(2-Imidazolyl)-10,12,15,16-tetrahydroxy-8-methoxy-11-methyl-9,14-dioxo-6,7,9,14-tetrahydronaphthaceno[1,2-g]phthalazin-1-one] | – | > 350 °C (dec.) | –
14 | COc1c2c(c(O)c3c1C(=O)c1c(cc(O)c(C)c1O)C3=O)-c1c(cc3cnn(-c4ccccn4)c(=O)c3c1O)CC2 [Compound 16, 2-(2-Pyridyl)-10,12,15,16-tetrahydroxy-8-methoxy-11-methyl-9,14-dioxo-6,7,9,14-tetrahydronaphtbaceno[1,2-g]phthalazin-1-one] | 520 | – | –
15 | C=CCc1cc2c(c(O)c1C)C(=O)c1c(OC)c3c(c(O)c1C2=O)-c1c(cc2cnn(-c4ccccc4)c(=O)c2c1O)CC3 [Compound 17, 2-Phenyl-12-allyl-10,15,16-trihydroxy-8-methoxy-11-methyl-9,14-dioxo-6,7,9,14-tetrahydronaphthaceno[1,2-g]phthalazin-1-one] | – | 163 °C | –
